Test results taken from PMC7259758 (PLoS ONE, 2020).
Where two headings read alike, the source gives them in different places.

Experiments:
[1] = test system: triple-exon skipping of MDM2 pre-mRNA in SK-MEL-2/Luc-MDM2 cells; test: TESLR (Triple Exon Skipping Luciferase Reporter) dose response; settings: for TESLR Maximum fold change: 4 hours; for EC50: read-out: TESLR EC50
SF3B1 = biological target: T1, SF3B1 (Homo sapiens, UniProt O75533+Q7RTV0); test: Competitive antagonist assay (TESLR in the presence of SD6 or hit compound); type: cell-based; settings: 1 h pre-treatment with analog, then 4 μM SD6 for another 4 hours; read-out: IC50 for antagonism of SD6 activity in the TESLR assay
T1 construct: endogenous in cells
Protocol: SK-MEL-2/Luc-MDM2 stable cells were plated at a density of 20,000 cells/well in 96-well plates and incubated overnight at 37°C in 5% CO2.[27, 28] The following day, cells were treated with 14 analogs using serial dilution for one hour. The list of compounds screened as potential TESLR antagonists are show in SI file. After one-hour pre-treatment, 4 μM of SD6 were added to the pre-treated cells for another 4 hours. Either 0.5% DMSO or serial dilutions of SD6 were used to treat cells for 4 hours as controls. At the end of incubation time, ONE-Glo™ EX reagents (Promega) were added to measure the luciferase activity. […]
Fig 6 Competitive antagonist assay. (Left Panel) The assay that identified two antagonists of SD6 activity in the TESLR screen, which are useful for the determination of SF3B1 binding. Relative luminescent units were plotted against corresponding drug concentrations and fitted with a standard four parameter sigmoidal curve with GraphPad Prism. (Right Panel) The structures of the antagonists and SD6. See SI for chemistry details.
. SK-MEL-2/Luc-MDM2 stable cells were plated at a density of 20000/well in 96-well plates and incubated overnight at 37°C in 5% CO2. […]. After one-hour pre-treatment, serial dilutions of the sudemycinol C were added to the pre-treated cells for another 4 hours. […]. At the end of incubation time, ONE-Glo™ EX reagents (Promega) were added to measure the luciferase activity. […]. DR: dose response.

CLK1 = test system: CLK1; parameters: method as in PMID 29191878; settings: chemoproteomic analysis; read-out: affinity for CLK1 (IC50); cited from earlier work
[2] = SK-MEL-2/Luc-MDM2 cells, luciferase activity
[3] = Homo sapiens, SK-MEL-2, 4 h, read-out: TESLR IC50 in inducing triple exon skipping

IC50 [1, 3] [µM]	Structure (SMILES)	TESLR Maximum fold change [1, 2]	other results
10 to 300	O=C(O)c1ccc2c(c1)nc(Nc1cccc(Cl)c1)c1ccncc12 [silmitasertib]	31.5	EC50 ([1]; Homo sapiens, SK-MEL-2, 4 h): 19.9 µM
10 to 300	CC(=O)c1c(C)c2cnc(Nc3ccc(N4CCNCC4)cn3)nc2n(C2CCCC2)c1=O [palbociclib]	2.92	IC50 (CLK1): 0.276 µM; IC50 ([1]; Homo sapiens, SK-MEL-2, 4 h, read-out: TESLR IC50 (as printed in Fig 5)): ~291 µM

Continued, compound first:

Structure (SMILES)	IC50 [1, 3] [µM]	TESLR Maximum fold change [1, 2]	other results
COc1ncc2cc(C(=O)Nc3cc(C(=O)NCc4cccc(Cl)c4)ccc3Cl)c(=O)[nH]c2n1 [Mirk-IN-1]	–	30.7	EC50 ([1]; SK-MEL-2/Luc-MDM2 cells, 4 hour treatment, luciferase activity): 15 µM
CN1CC[C@H](c2c(O)cc(O)c3c(=O)cc(-c4ccccc4Cl)oc23)[C@H](O)C1 [flavopiridol]	> 10	–	–
CC(C=CC1CC2(CO2)CC(C)(C)O1)=CCC1CCC(NC(=O)C=CC(C)O)CC1 (centres unmarked) [Sudemycinol C, sudemycinol C]	–	–	IC50 (SF3B1): 0.97 µM
